From US10111874B2, “Combination therapies for treatment of cancer” (Araxes Pharma LLC, priority 2014, dated 2018)

Biological target: T1, KRAS G12C 1-169, his-tagged protein, GDP-loaded (Homo sapiens, UniProt P01116, G12C)
T1 construct: KRAS G12C 1-169, his-tagged protein, GDP-loaded
Experiment: Biochemical assay: covalent binding to KRAS G12C analyzed by mass spectrometry
Conditions: compounds 1-47, measured at 24 h
Protocol: Compounds were tested for activity as follows:
Compounds were diluted to 50× final test concentration in DMSO in 96-well storage plates. […] Reactions were mixed carefully and thoroughly by pipetting up/down with a 200 μl multi-channel pipettor. […] 5 μl of 2% formic acid (Fisher cat#A117) in DI H2O was then added to each well followed by mixing with a pipette. The plate was then resealed with aluminum seal and stored on dry ice until analyzed as described below.
The above described assays were analyzed by mass spectrometry according to the following procedure:
The MS instrument is set to positive polarity, 2 GHz resolution, and low mass (1700) mode and allowed to equilibrate for 30 minutes. The instrument is then calibrated, switched to acquisition mode and the appropriate method loaded.
After another 30 minute equilibration time, a blank batch (i.e., buffer) is run to ensure equipment is operating properly. The samples are thawed at 37° C. for 10 minutes, briefly centrifuged, and transfer to the bench top. Wells A1 and H12 are spiked with 1 μL 500 μM internal standard peptide, and the plates centrifuged at 2000×g for 5 minutes. The method is then run and masses of each individual well recorded.
The masses (for which integration data is desired) for each well are pasted into the platemap and exported from the analysis. Masses for the internal standards are exported as well. The data at 50 ppm is extracted for the +19 charge state, and identity of well A1 is assigned using the internal standard spike and integrated. Peak data is exported as a TOF list and the above steps are repeated individually, for the +20, 21, 22, 23, 24, and 25 charge states.

T1 sequence (P01116 1-169 isoform P01116-2 G12C): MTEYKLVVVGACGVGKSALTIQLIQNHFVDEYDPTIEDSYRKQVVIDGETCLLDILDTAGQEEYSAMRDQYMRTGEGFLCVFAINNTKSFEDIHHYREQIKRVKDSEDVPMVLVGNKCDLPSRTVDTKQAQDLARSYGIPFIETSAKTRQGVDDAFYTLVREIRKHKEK

Structure (SMILES) | Binding %
C=CC(=O)N1CCN(c2ncnc3cc(Cl)c(-c4ccc(Cl)cc4)cc23)CC1C#N (stereo not shown) [Compound I-47, 1-acryloyl-4-(7-chloro-6-(4-chlorophenyl)quinazolin-4-yl)piperazine-2-carbonitrile] | ++++ (++++indicates binding activity greater than 75%)
C=CC(=O)N1CCN(c2ncnc3cc(Cl)c(-c4ccc(Cl)cc4)cc23)CC1CO (stereo not shown) [Compound I-46, 1-(4-(7-chloro-6-(4-chlorophenyl)quinazolin-4-yl)-2-(hydroxymethyl)piperazin-1-yl)prop-2-en-1-one] | ++++ (++++indicates binding activity greater than 75%)
C=CC(=O)N1CCN(c2ncnc3cc(Cl)c(-c4ccc(Cl)s4)cc23)CC1 [Compound I-34, 1-(4-(7-chloro-6-(5-chlorothiophen-2-yl)quinazolin-4-yl)piperazin-1-yl)prop-2-en-1-one] | +++ (+++indicates binding activity greater than 50% and up to 75%)
C=CC(=O)N1CCN(c2ncnc3cc(Cl)c(-c4cccc(O)c4)cc23)CC1 [Compound I-14, 1-(4-(7-chloro-6-(3-hydroxyphenyl)quinazolin-4-yl)piperazin-1-yl)prop-2-en-1-one] | ++ (++indicates binding activity greater than 25% and up to 50%)

Same assay, conditions: compounds 48-246, measured at 2 h

Structure (SMILES) | Binding %
C=CC(=O)N1CCN(c2ncnc3cc(-c4cc(F)ccc4C(N)=O)c(Cl)cc23)CC1 [Compound I-197, 2-(4-(4-acryloylpiperazin-1-yl)-6-chloroquinazolin-7-yl)-4-fluorobenzamide] | ++ (++indicates binding activity greater than 25% and up to 50%)
C=CC(=O)N1CCN(c2ncnc3cc(-c4cccc(O)c4)c(Cl)cc23)CC1 [Compound I-75, 1-(4-(6-chloro-7-(3-hydroxyphenyl)quinazolin-4-yl)piperazin-1-yl)prop-2-en-1-one] | + (+indicates binding activity from 5% to 25%)
C=CC(=O)N1CCN(c2ncnc3cc(Cl)c(Br)cc23)CC1C#N (stereo not shown) [Compound I-49, 1-acryloyl-4-(6-bromo-7-chloroquinazolin-4-yl)piperazine-2-carbonitrile] | ++++ (++++indicates binding activity greater than 75%)
C=CC(=O)N1CCN(c2ncnc3cc(-c4cc(Cl)ccc4Cl)c(Cl)cc23)CC1 [Compound I-101, 1-(4-(6-chloro-7-(2,5-dichlorophenyl)quinazolin-4-yl)piperazin-1-yl)prop-2-en-1-one] | +++ (+++indicates binding activity greater than 50% and up to 75%)
C=CC(=O)N1CCN(c2ncnc3cc(C4CC4)c(Cl)cc23)CC1 [Compound I-68, 1-(4-(6-chloro-7-cyclopropylquinazolin-4-yl)piperazin-1-yl)prop-2-en-1-one] | + (+indicates binding activity from 5% to 25%)
C=CC(=O)N1CCN(c2ncnc3cc(-c4ccccc4C(N)=O)c(C(F)(F)F)cc23)CC1 [Compound I-211, 2-(4-(4-acryloylpiperazin-1-yl)-6-(trifluoromethyl)quinazolin-7-yl)benzamide] | + (+indicates binding activity from 5% to 25%)
C=CC(=O)N1CCN(c2ncnc3cc(-c4cc(Cl)ccc4O)c(Cl)cc23)CC1 [Compound I-118, 1-(4-(6-chloro-7-(5-chloro-2-hydroxyphenyl)quinazolin-4-yl)piperazin-1-yl)prop-2-en-1-one] | +++ (+++indicates binding activity greater than 50% and up to 75%)
C=CC(=O)N1CCN(c2ncnc3c(F)c(-c4cc(O)ccc4Cl)c(Cl)cc23)CC1 [Compound I-217, 1-(4-(6-chloro-7-(2-chloro-5-hydroxyphenyl)-8-fluoroquinazolin-4-yl)piperazin-1-yl)prop-2-en-1-one] | +++ (+++indicates binding activity greater than 50% and up to 75%)
C=CC(=O)N1CCN(c2ncnc3cc(-c4ccccc4C4CC4)c(Cl)cc23)CC1 [Compound I-126, 1-(4-(6-chloro-7-(2-cyclopropylphenyl)quinazolin-4-yl)piperazin-1-yl)prop-2-en-1-one] | ++++ (++++indicates binding activity greater than 75%)
C=CC(=O)N1CCN(c2ncnc3cc(-c4ccc[nH]c4=O)c(Cl)cc23)CC1 [Compound I-170, 3-(4-(4-acryloylpiperazin-1-yl)-6-chloroquinazolin-7-yl)pyridin-2(1H)-one] | + (+indicates binding activity from 5% to 25%)
C=CC(=O)N1CCN(c2ncnc3cc(-c4cccc5cncnc45)c(Cl)cc23)CC1 [Compound I-180, 1-(4-(6-chloro-7,8′-biquinazolin-4-yl)piperazin-1-yl)prop-2-en-1-one] | + (+indicates binding activity from 5% to 25%)
C=CC(=O)N1CCN(c2ncnc3cc(-c4ccccc4CC(N)=O)c(Cl)cc23)CC1 [Compound I-161, 2-(2-(4-(4-acryloylpiperazin-1-yl)-6-chloroquinazolin-7-yl)phenyl)acetamide] | ++ (++indicates binding activity greater than 25% and up to 50%)
C=CC(=O)N1CCN(c2ncnc3cc(-c4cccc5c4OCCO5)c(Cl)cc23)CC1 [Compound I-201, 1-(4-(6-chloro-7-(2,3-dihydrobenzo[d][1,4]dioxol-5-yl)quinazolin-4-yl)piperazin-1-yl)prop-2-en-1-one] | +++ (+++indicates binding activity greater than 50% and up to 75%)
C=CC(=O)N1CCN(c2ncnc3cc(-c4cccc(C(=O)N(C)C)c4F)c(Cl)cc23)CC1 [Compound I-131, 3-(4-(4-acryloylpiperazin-1-yl)-6-chloroquinazolin-7-yl)-2-fluoro-N,N-dimethylbenzamide] | + (+indicates binding activity from 5% to 25%)
C=CC(=O)N1CCN(c2ncnc3cc(-c4nn(C)c5ccccc45)c(Cl)cc23)CC1 [Compound I-226, 1-(4-(6-chloro-7-(1-methyl-1H-indazol-3-yl)quinazolin-4-yl)piperazin-1-yl)prop-2-en-1-one] | + (+indicates binding activity from 5% to 25%)

Same assay, conditions: compounds 247-342, measured at 30 min

Structure (SMILES) | Binding %
C=CC(=O)N1CCN(c2ncnc3c(F)c(-c4c(C)cccc4OC)c(Cl)cc23)CC1 [Compound I-287, 1-(4-(6-chloro-8-fluoro-7-(2-methoxy-6-methylphenyl)quinazolin-4-yl)piperazin-1-yl)prop-2-en-1-one] | ++ (++indicates binding activity greater than 25% and up to 50%)
C=CC(=O)N1CCN(c2nc(N)nc3cc(-c4c(C)ccc5[nH]ncc45)c(Cl)cc23)CC1 [Compound 319, 1-(4-(2-amino-6-chloro-7-(5-methyl-1H-indazol-4-yl)quinazolin-4-yl)piperazin-1-yl)prop-2-en-1-one] | ++ (++indicates binding activity greater than 25% and up to 50%)
C=CC(=O)N1CCN(c2nc(OCCN(C)C)nc3c(F)c(-c4c(C)ccc5[nH]ncc45)c(Cl)cc23)CC1 [Compound 323, 1-(4-(6-chloro-2-(2-(dimethylamino)ethoxy)-8-fluoro-7-(5-methyl-1H-indazol-4-yl)quinazolin-4-yl)piperazin-1-yl)prop-2-en-1-one] | +++ (+++indicates binding activity greater than 50% and up to 75%)
C=CC(=O)N1CCN(c2nc(N(C)C)nc3c(F)c(-c4c(C)ccc5[nH]ncc45)c(Cl)cc23)CC1 [Compound 338, 1-(4-(6-chloro-2-(dimethylamino)-8-fluoro-7-(5-methyl-1H-indazol-4-yl)quinazolin-4-yl)piperazin-1-yl)prop-2-en-1-one] | ++ (++indicates binding activity greater than 25% and up to 50%)
C=CC(=O)N1CCN(c2c(C#N)cnc3cc(-c4c(C)ccc5[nH]ncc45)c(Cl)cc23)CC1 [Compound I-270, 4-(4-acryloylpiperazin-1-yl)-6-chloro-7-(5-methyl-1H-indazol-4-yl)quinoline-3-carbonitrile] | +++ (+++indicates binding activity greater than 50% and up to 75%)
C=CC(=O)N1CCN(c2ncnc3c(F)c(-c4c(F)ccc5[nH]ncc45)c(Cl)cc23)CC1 [Compound 331, 1-(4-(6-chloro-8-fluoro-7-(5-fluoro-1H-indazol-4-yl)quinazolin-4-yl)piperazin-1-yl)prop-2-en-1-one] | ++ (++indicates binding activity greater than 25% and up to 50%)

Same assay, conditions: determined at 2 hrs

Structure (SMILES) | Binding %
C=CC(=O)N1CC(N2CCN(C(=O)/C=C/c3cc(C4CC4)c(Cl)cc3O)CC2)C1 [II-62, (E)-1-(4-(1-Acryloylazetidin-3-yl)piperazin-1-yl)-3-(4-chloro-5-cyclopropyl-2-hydroxyphenyl)prop-2-en-1-one] | + (+indicates binding activity from 5% to 20%)

Same assay, conditions: determined at 24 hrs

Structure (SMILES) | Binding %
C=CS(=O)(=O)N1CCC(N2CCN(C(=O)CNc3cc(Cl)c(Cl)cc3O)CC2)C1 (stereo not shown) [II-41, 2-(4,5-dichloro-2-hydroxyphenylamino)-1-(4-(1-(vinylsulfonyl)-pyrrolidin-3-yl)piperazin-1-yl)ethanone] | ++++ (++++indicates binding activity greater than 50%)
CN(C)C/C=C/C(=O)N1CC(N2CCN(C(=O)CNc3cc(Cl)c(Cl)cc3O)CC2)C1 [II-20, (E)-1-(3-(4-((4,5-dichloro-2-hydroxyphenyl)-glycyl)piperazin-1-yl)azetidin-1-yl)-4-(dimethylamino)but-2-en-1-one] | ++ (++indicates binding activity greater than 15% and up to 25%)
